Results published in the supplement of paper PMC10307832.

Legend:
Experiment in all cases: relative viability (nuclei count vs DMSO), 5 days (fraction); higher = more cells survive
201T = test system: 201T
In short: (§1)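 For relative viability, nuclei counts in treated wells were divided by those in vehicle wells. Lung cancer cell lines had been pin-tool dosed in 1536-well plates the day after seeding and cultured for 5 days, then fixed and stained in one step (final 0.05% Triton X-100, 1% formaldehyde, 1 ug/ml Hoechst) and imaged at 4×. Doses were one drug alone or a fixed anchor-drug dose plus five library-drug doses (not always all listed) in √10 steps, and values are duplicate-plate medians.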

ABC-1 = test system: ABC-1
In short: as §1

EBC-1 = test system: EBC-1
In short: as §1

EMC-BAC-2 = test system: EMC-BAC-2
In short: as §1

EPLC-272H = test system: EPLC-272H
In short: as §1

HCC-78 = test system: HCC-78
In short: as §1

IA-LM = test system: IA-LM
In short: as §1

LCLC-103H = test system: LCLC-103H
In short: as §1

LOU-NH91 = test system: LOU-NH91
In short: as §1

NCI-H1395 = test system: NCI-H1395
In short: as §1

NCI-H1437 = test system: NCI-H1437
In short: as §1

NCI-H1651 = test system: NCI-H1651
In short: as §1

NCI-H1792 = test system: NCI-H1792
In short: as §1

NCI-H1793 = test system: NCI-H1793
In short: as §1

NCI-H1915 = test system: NCI-H1915
In short: as §1

NCI-H1975 = test system: NCI-H1975
In short: as §1

NCI-H2023 = test system: NCI-H2023
In short: as §1

NCI-H23 = test system: NCI-H23
In short: as §1

NCI-H2405 = test system: NCI-H2405
In short: as §1

NCI-H647 = test system: NCI-H647
In short: as §1

NCI-H661 = test system: NCI-H661
In short: as §1

RERF-LC-KJ = test system: RERF-LC-KJ
In short: as §1

SK-LU-1 = test system: SK-LU-1
In short: as §1

UMC-11 = test system: UMC-11
In short: as §1

## CCCCCCCCCCCC1=C(O)C(=O)C=C(O)C1=O [Embelin] + Cc1nc(NC(=O)N2CCC[C@H]2C(N)=O)sc1-c1ccnc(C(C)(C)C(F)(F)F)c1 [Alpelisib] (partner 2 µM)
201T; first compound 0.08 µM
  relative viability: 0.979
201T; first compound 0.8 µM
  relative viability: 1.03
201T; first compound 2.53 µM
  relative viability: 0.981
201T; first compound 8 µM
  relative viability: 0.971
ABC-1; first compound 0.08 µM
  relative viability: 1.24
ABC-1; first compound 0.8 µM
  relative viability: 1.1
ABC-1; first compound 2.53 µM
  relative viability: 0.996
ABC-1; first compound 8 µM
  relative viability: 1.18
EBC-1; first compound 0.08 µM
  relative viability: 0.93
EBC-1; first compound 0.8 µM
  relative viability: 1
EBC-1; first compound 2.53 µM
  relative viability: 0.914
EBC-1; first compound 8 µM
  relative viability: 0.732
EMC-BAC-2; first compound 0.08 µM
  relative viability: 0.75
EMC-BAC-2; first compound 0.8 µM
  relative viability: 0.736
EMC-BAC-2; first compound 2.53 µM
  relative viability: 0.792
EMC-BAC-2; first compound 8 µM
  relative viability: 0.825
EPLC-272H; first compound 0.08 µM
  relative viability: 0.963
EPLC-272H; first compound 0.8 µM
  relative viability: 1.21
EPLC-272H; first compound 2.53 µM
  relative viability: 0.908
EPLC-272H; first compound 8 µM
  relative viability: 0.933
HCC-78; first compound 0.08 µM
  relative viability: 0.329
HCC-78; first compound 0.8 µM
  relative viability: 0.392
HCC-78; first compound 2.53 µM
  relative viability: 0.388
HCC-78; first compound 8 µM
  relative viability: 0.307
IA-LM; first compound 0.08 µM
  relative viability: 0.778
IA-LM; first compound 0.8 µM
  relative viability: 0.753
IA-LM; first compound 2.53 µM
  relative viability: 0.839
IA-LM; first compound 8 µM
  relative viability: 0.191
LCLC-103H; first compound 0.08 µM
  relative viability: 1.07
LCLC-103H; first compound 0.8 µM
  relative viability: 1.02
LCLC-103H; first compound 2.53 µM
  relative viability: 1.02
LCLC-103H; first compound 8 µM
  relative viability: 0.866
LOU-NH91; first compound 0.08 µM
  relative viability: 0.771
LOU-NH91; first compound 0.8 µM
  relative viability: 0.904
LOU-NH91; first compound 2.53 µM
  relative viability: 0.862
LOU-NH91; first compound 8 µM
  relative viability: 0.709
NCI-H1395; first compound 0.08 µM
  relative viability: 1.06
NCI-H1395; first compound 0.8 µM
  relative viability: 1.24
NCI-H1395; first compound 2.53 µM
  relative viability: 0.982
NCI-H1395; first compound 8 µM
  relative viability: 1.1
NCI-H1437; first compound 0.08 µM
  relative viability: 0.916
NCI-H1437; first compound 0.8 µM
  relative viability: 1.05
NCI-H1437; first compound 2.53 µM
  relative viability: 1.32
NCI-H1437; first compound 8 µM
  relative viability: 0.697
NCI-H1651; first compound 0.08 µM
  relative viability: 0.939
NCI-H1651; first compound 0.8 µM
  relative viability: 0.971
NCI-H1651; first compound 2.53 µM
  relative viability: 0.945
NCI-H1651; first compound 8 µM
  relative viability: 0.873
NCI-H1792; first compound 0.08 µM
  relative viability: 0.718
NCI-H1792; first compound 0.8 µM
  relative viability: 0.764
NCI-H1792; first compound 2.53 µM
  relative viability: 0.785
NCI-H1792; first compound 8 µM
  relative viability: 0.588
NCI-H1793; first compound 0.08 µM
  relative viability: 0.752
NCI-H1793; first compound 0.8 µM
  relative viability: 0.972
NCI-H1793; first compound 2.53 µM
  relative viability: 0.794
NCI-H1793; first compound 8 µM
  relative viability: 0.728
NCI-H1915; first compound 0.08 µM
  relative viability: 1.12
NCI-H1915; first compound 0.8 µM
  relative viability: 1.15
NCI-H1915; first compound 2.53 µM
  relative viability: 1.11
NCI-H1915; first compound 8 µM
  relative viability: 1.08
NCI-H1975; first compound 0.08 µM
  relative viability: 0.663
NCI-H1975; first compound 0.8 µM
  relative viability: 0.674
NCI-H1975; first compound 2.53 µM
  relative viability: 0.696
NCI-H1975; first compound 8 µM
  relative viability: 0.674
NCI-H2023; first compound 0.08 µM
  relative viability: 0.708
NCI-H2023; first compound 0.8 µM
  relative viability: 0.532
NCI-H2023; first compound 2.53 µM
  relative viability: 0.651
NCI-H2023; first compound 8 µM
  relative viability: 0.639
NCI-H23; first compound 0.08 µM
  relative viability: 0.606
NCI-H23; first compound 0.8 µM
  relative viability: 0.901
NCI-H23; first compound 2.53 µM
  relative viability: 0.844
NCI-H23; first compound 8 µM
  relative viability: 0.74
NCI-H2405; first compound 0.08 µM
  relative viability: 0.853
NCI-H2405; first compound 0.8 µM
  relative viability: 1.11
NCI-H2405; first compound 2.53 µM
  relative viability: 0.774
NCI-H2405; first compound 8 µM
  relative viability: 0.793
NCI-H647; first compound 0.08 µM
  relative viability: 1.29
NCI-H647; first compound 0.8 µM
  relative viability: 1.15
NCI-H647; first compound 2.53 µM
  relative viability: 1.45
NCI-H647; first compound 8 µM
  relative viability: 1.28
NCI-H661; first compound 0.08 µM
  relative viability: 0.612
NCI-H661; first compound 0.8 µM
  relative viability: 0.97
NCI-H661; first compound 2.53 µM
  relative viability: 0.92
NCI-H661; first compound 8 µM
  relative viability: 0.756
RERF-LC-KJ; first compound 0.08 µM
  relative viability: 0.856
RERF-LC-KJ; first compound 0.8 µM
  relative viability: 0.815
RERF-LC-KJ; first compound 2.53 µM
  relative viability: 1.07
RERF-LC-KJ; first compound 8 µM
  relative viability: 0.865
SK-LU-1; first compound 0.08 µM
  relative viability: 1.29
SK-LU-1; first compound 0.8 µM
  relative viability: 1.31
SK-LU-1; first compound 2.53 µM
  relative viability: 1.37
SK-LU-1; first compound 8 µM
  relative viability: 0.904
UMC-11; first compound 0.08 µM
  relative viability: 0.969
UMC-11; first compound 0.8 µM
  relative viability: 1.07
UMC-11; first compound 2.53 µM
  relative viability: 1.24
UMC-11; first compound 8 µM
  relative viability: 1.2
